Test results published in US8080569B2, “Imidazo[2,1-b]thiazoles and their use as pharmaceuticals” (Sanofi-Aventis, priority 2006, dated 2011).

System: eNOS promoter
Assay: Activation of eNOS transcription (eNOS promoter-luciferase reporter in human endothelial cell line)
Type: cell-based
Conditions: human endothelial cell line stably transfected with eNOS promoter-luciferase construct, 18 h incubation, EC50 determined graphically; read-out: EC50 values of transcription induction ratios (TIR)
Method: A) Activation of eNOS Transcription
Activation of eNOS transcription was measured as described in detail by Li et al., “Activation of protein kinase C alpha and/or epsilon enhances transcription of the human endothelial nitric oxide synthase gene”, Mol. Pharmacol. 53 (1998), 630-637. Briefly, a 3.5 kB long fragment 5′ of the starting codon of the eNOS gene was cloned, sequenced and cloned in firefly luciferase expression plasmids to monitor activation of the eNOS promoter by reporter gene activity. A human endothelial cell line stable transfected and expressing this promoter-reporter construct was used for compound testing. Cells were incubated for 18 h with the compounds.
All compounds were dissolved in sterile dimethyl sulfoxide (DMSO). A final concentration of 0.5% DMSO in complete medium was allowed. Induction of reporter gene expression in these cells was measured using a standard luciferase assay system (Promega, Cat. No. E150) according to the manufacturer's instructions. Luciferase induction in cells incubated with compounds were compared to those incubated with solvent alone. The ratio of both activities (transcription induction ratio, TIR) was plotted as a function of compound concentration. Typically, TIR values started at low concentrations at a ratio of 1, indicating no compound effect, and extended up to a maximum TIR value TIR(max) which indicates the increase of the eNOS transcription. EC50 values of transcription induction ratios as a function of compound concentration were determined graphically.

SMILES	EC50
Cc1c(C(=O)NC(C)(C)C)sc2nc(-c3ccc(F)cc3)cn12 [Example 10, 6-(4-Fluoro-phenyl)-3-methyl-imidazo[2,1-b]thiazole-2-carboxylic acid tert-butylamide]	< 500 nM
CCOC(=O)c1sc2nc(-c3cccc(Cl)c3)cn2c1C [Example 2, 6-(3-Chloro-phenyl)-3-methyl-imidazo[2,1-b]thiazole-2-carboxylic acid ethyl ester]	< 500 nM
CCOC(=O)c1sc2nc(-c3ccc(C)cc3)cn2c1C [Example 3, 3-Methyl-6-p-tolyl-imidazo[2,1-b]thiazole-2-carboxylic acid ethyl ester]	< 500 nM
Fc1ccc(-c2cn3cc(Br)sc3n2)cc1 [Example 22, 2-Bromo-6-(4-fluoro-phenyl)-imidazo[2,1-b]thiazole]	< 500 nM
CCOC(=O)c1sc2nc(-c3ccc(F)cc3)cn2c1C [Example 1, 6-(4-Fluoro-phenyl)-3-methyl-imidazo[2,1-b]thiazole-2-carboxylic acid ethyl ester]	< 500 nM
